In PubChem BioAssay AID2060484 (Molecular Pharmacology Branch, DTP, NCI, 2025):

Tested on: SUM149PT spheroids with HUVEC/MSC, viability
Assay: Anticancer human tumor SUM149PT cell line growth inhibition [GQUAD];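 also: spheroids exposed to drugs for seven days before readout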;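 as to viability, T/C: percent viability relative to DMSO vehicle control taken as 100%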
Details: for IC50: curve of first compound; for viability, T/C: stronger effect = lower value; active = viability on the fitted dose curve at most 10% of control; inactive = the rest
Method in brief: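 Viability of tumor cells grown as complex spheroids with endothelial and stromal cells, exposed to drug combinations. Top concentration at or near clinical Cmax (else 10 microM), diluted in half-log increments.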

[1] = second compound 0.0316 µM, first compound 0.0316 µM
[2] = second compound 0.0316 µM, first compound 0.1 µM
[3] = second compound 0.0316 µM, first compound 0.316 µM
[4] = second compound 0.0316 µM, first compound 1 µM
[5] = second compound 0.0316 µM, first compound 3.16 µM
[6] = second compound 0.0316 µM, first compound 10 µM
[7] = second compound 0.1 µM, first compound 0.0316 µM
[8] = second compound 0.1 µM, first compound 0.1 µM
[9] = second compound 0.1 µM, first compound 0.316 µM
[10] = second compound 0.1 µM, first compound 1 µM
[11] = second compound 0.1 µM, first compound 3.16 µM
[12] = second compound 0.1 µM, first compound 10 µM
[13] = second compound 0.316 µM, first compound 0.0316 µM
[14] = second compound 0.316 µM, first compound 0.1 µM
[15] = second compound 0.316 µM, first compound 0.316 µM
[16] = second compound 0.316 µM, first compound 1 µM
[17] = second compound 0.316 µM, first compound 3.16 µM
[18] = second compound 0.316 µM, first compound 10 µM
[19] = second compound 1 µM, first compound 0.0316 µM
[20] = second compound 1 µM, first compound 0.1 µM
[21] = second compound 1 µM, first compound 0.316 µM
[22] = second compound 1 µM, first compound 1 µM
[23] = second compound 1 µM, first compound 3.16 µM
[24] = second compound 1 µM, first compound 10 µM
[25] = second compound 3.16 µM, first compound 0.0316 µM
[26] = second compound 3.16 µM, first compound 0.1 µM
[27] = second compound 3.16 µM, first compound 0.316 µM
[28] = second compound 3.16 µM, first compound 1 µM
[29] = second compound 3.16 µM, first compound 3.16 µM
[30] = second compound 3.16 µM, first compound 10 µM
[31] = second compound 10 µM, first compound 0.0316 µM
[32] = second compound 10 µM, first compound 0.1 µM
[33] = second compound 10 µM, first compound 0.316 µM
[34] = second compound 10 µM, first compound 1 µM
[35] = second compound 10 µM, first compound 3.16 µM
[36] = second compound 10 µM, first compound 10 µM

C=CC(=O)N1CCN(c2nc(=O)n(-c3c(C)ccnc3C(C)C)c3nc(-c4c(O)cccc4F)c(F)cc23)C(C)C1 (stereo unspecified) + Cc1cnc(CNC(=O)c2c(=O)c3ccc(N4CCCN(C)CC4)nc3n3c2sc2ccccc23)cn1
> 10000 nM: IC50 (second compound 0.0316 µM) | IC50 (second compound 0.1 µM) | IC50 (second compound 0.316 µM)
inactive: viability, T/C [1] 92.7% | viability, T/C [2] 82.8% | viability, T/C [3] 103% | viability, T/C [4] 103% | viability, T/C [5] 123% | viability, T/C [6] 106% | viability, T/C [7] 62.4% | viability, T/C [8] 66.6% | viability, T/C [9] 76.5% | viability, T/C [10] 77.1% | viability, T/C [11] 85.4% | viability, T/C [12] 70% | viability, T/C [13] 61.9% | viability, T/C [14] 54.8% | viability, T/C [15] 56.5% | viability, T/C [16] 65.9% | viability, T/C [17] 66.9% | viability, T/C [18] 59.3% | viability, T/C [19] 50% | viability, T/C [20] 46.1% | viability, T/C [21] 48.7% | viability, T/C [22] 51.6% | viability, T/C [23] 56.3% | viability, T/C [24] 46.7% | viability, T/C [25] 40.7% | viability, T/C [26] 38.4% | viability, T/C [27] 42.5% | viability, T/C [28] 45.6% | viability, T/C [29] 47% | viability, T/C [30] 41.2%
< 31.6 nM: IC50 (second compound 1 µM) | IC50 (second compound 3.16 µM) | IC50 (second compound 10 µM)
active: viability, T/C [31] 0.28% | viability, T/C [32] 2.73% | viability, T/C [33] 1.23% | viability, T/C [34] 2.1% | viability, T/C [35] 3.34% | viability, T/C [36] 0.29%

CC1COCCN1c1cc(-c2ccnn2C)c2ccnc(-c3ccn[nH]3)c2n1 (stereo unspecified) + Cc1cnc(CNC(=O)c2c(=O)c3ccc(N4CCCN(C)CC4)nc3n3c2sc2ccccc23)cn1
active: viability, T/C [31] 0.11% | viability, T/C [32] 0.15% | viability, T/C [33] 0.93% | viability, T/C [34] 1.21% | viability, T/C [35] 1.74% | viability, T/C [36] 0.18%
inactive: viability, T/C [1] 14.7% | viability, T/C [2] 12.5% | viability, T/C [3] 18.1% | viability, T/C [4] 18.2% | viability, T/C [5] 20.6% | viability, T/C [6] 19.2% | viability, T/C [7] 17.1% | viability, T/C [8] 19.6% | viability, T/C [9] 18.7% | viability, T/C [10] 20.3% | viability, T/C [11] 20.3% | viability, T/C [12] 20.4% | viability, T/C [13] 21.1% | viability, T/C [14] 20.5% | viability, T/C [15] 24.3% | viability, T/C [16] 20.3% | viability, T/C [17] 21.9% | viability, T/C [18] 18.4% | viability, T/C [19] 21.4% | viability, T/C [20] 23.1% | viability, T/C [21] 26.4% | viability, T/C [22] 21.5% | viability, T/C [23] 20.7% | viability, T/C [24] 17.5% | viability, T/C [25] 25.9% | viability, T/C [26] 23.6% | viability, T/C [27] 24.2% | viability, T/C [28] 20.8% | viability, T/C [29] 18.8% | viability, T/C [30] 15.9%
< 31.6 nM: IC50 (second compound 0.0316 µM) | IC50 (second compound 0.1 µM) | IC50 (second compound 0.316 µM) | IC50 (second compound 1 µM) | IC50 (second compound 3.16 µM) | IC50 (second compound 10 µM)

C=CCn1c(=O)c2cnc(Nc3ccc(N4CCN(C)CC4)cc3)nc2n1-c1cccc(C(C)(C)O)n1 + Cc1cnc(CNC(=O)c2c(=O)c3ccc(N4CCCN(C)CC4)nc3n3c2sc2ccccc23)cn1
active: viability, T/C [6] 8.42% | viability, T/C [11] 9.24% | viability, T/C [12] 8.01% | viability, T/C [18] 8.57% | viability, T/C [31] 0.17% | viability, T/C [32] 1.7% | viability, T/C [33] 0.84% | viability, T/C [34] 1.14% | viability, T/C [35] 0.21% | viability, T/C [36] 2.8%
68.6 nM: IC50 (second compound 0.0316 µM)
inactive: viability, T/C [1] 74.3% | viability, T/C [2] 37% | viability, T/C [3] 22.9% | viability, T/C [4] 14.2% | viability, T/C [5] 9.59% | viability, T/C [7] 42.7% | viability, T/C [8] 34.8% | viability, T/C [9] 18.6% | viability, T/C [10] 16.3% | viability, T/C [13] 45.9% | viability, T/C [14] 32.1% | viability, T/C [15] 21.3% | viability, T/C [16] 16.5% | viability, T/C [17] 11.3% | viability, T/C [19] 34.5% | viability, T/C [20] 25.6% | viability, T/C [21] 20.6% | viability, T/C [22] 17.7% | viability, T/C [23] 13.7% | viability, T/C [24] 11.5% | viability, T/C [25] 32.9% | viability, T/C [26] 26.3% | viability, T/C [27] 20.3% | viability, T/C [28] 16.7% | viability, T/C [29] 12.7% | viability, T/C [30] 10.6%
< 31.6 nM: IC50 (second compound 0.1 µM) | IC50 (second compound 0.316 µM) | IC50 (second compound 1 µM) | IC50 (second compound 3.16 µM) | IC50 (second compound 10 µM)
